System: MV4-11 cells
Test: In vitro proliferation (Cell Titer Glo, 6 days) of Compound 51 in combination with gilteritinib, midostaurin or decitabine, MV4-11
Assay type: cell-based
Set-up: key to Synergy/antagonism call (maxR test), MV4-11 Cell Proliferation: synergy is indicated by “**”; antagonism is indicated by “*”; no asterisk: absence of any asterisk indicates an additive effect
Protocol: 3) In Vitro Proliferation—Menin-MLL Inhibitor in Combination with FLT3 Inhibitor (Gilteritinib or Midostaurin), DNA Intercalating Agent (Idarubicin) or Hypomethylating Agent (Decitabine)
The effect of Compound 51 in combination with gilteritinib, midostaurin, idarubicin or decitabine was determined in proliferation assays.
AML cell lines MOLM-13, OCI-AML3 and MV4-11 were purchased from DSMZ. MOLM-13 were grown in RPMI medium supplemented with 10% Fetal Bovine Serum (FBS) and 1% penicillin/streptomycin. MV4-11 cells were grown in IMDM medium supplemented with 10% FBS and 1% penicillin/streptomycin. OCI-AML3 cells were cultured in 80-90% alpha-MEM (with or without ribo- and deoxyribonucleosides)+10-20% FBS. All cell lines were cultured at 37° C. in 5% CO2 atmosphere.
AML cell lines (10-20×10^3 cells/well) were seeded in 96-well plates and grown for 6 days in serum (10%)-containing medium in the presence or absence of inhibitors at the indicated concentrations. Proliferation was analyzed by means of a Cell Titer Glo assay using the […] (Promega, Madison, WI, USA), according to the manufacturer's instructions. Data are mean with standard deviation from two to four independent experiments in technical triplicates.
R-based Biochemically Intuitive Generalized Loewe (BIGL) model implemented with a highest single agent (HSA) null model. Specifically, the BIGL methodology was applied to calculate drug-drug interactions (Van der Borght, K., Tourny, A., Bagdziunas, R. et al. BIGL: Biochemically Intuitive Generalized Loewe null model for prediction of the expected combined effect compatible with partial agonism and antagonism. Sci Rep 7, 17935 (2017); Thas, O., Tourny, A., Verbist, B., Hawinkel, S., Nazarov, M., Mutambanengwe, K., & Bijnens, L. Statistical detection of synergy: New methods and a comparative study. Pharmaceutical Statistics (2021)).
Synergy matrix results of the BIGL analysis of the cell line data with HSA as mean model calculated on the basis of the cellular metabolic activity using Cell Titer-Glo assay. Bootstrap confidence intervals are indicated. Effect sizes and their confidence intervals are shown. […] No significant average effect if zero is included in the interval.

[1] = Compound 51 0.01 μm + Decitabine 0.0015 μM
[2] = Compound 51 0.01 μm + Decitabine 0.035 μM
[3] = Compound 51 0.01 μm + Decitabine 0.15 μM
[4] = Compound 51 0.01 μm + Gilteritinib 0.0005 μM
[5] = Compound 51 0.05 μm + Decitabine 0.15 μM
[6] = Compound 51 0.05 μm + Decitabine 1.5 μM
[7] = Compound 51 0.05 μm + Gilteritinib 0.0005 μM

Compound: CC(=O)N1CCC(CN2CC[C@@H](Cc3cn(-c4ccc(F)cc4C(=O)N(C)C(C)C)c4cncc(C)c34)C2)CC1 [Compound 51]
- Effect size (BIGL, HSA null model), MV4-11 Cell Proliferation (Compound 51 0.0001 μm + Midostaurin 0.0012 μM): −0.03
- Effect size (BIGL, HSA null model), MV4-11 Cell Proliferation (Compound 51 0.0001 μm + Midostaurin 0.006 μM): 0.13
- Effect size (BIGL, HSA null model), MV4-11 Cell Proliferation (Compound 51 0.0001 μm + Midostaurin 0.025 μM): 0.02
- Effect size (BIGL, HSA null model), MV4-11 Cell Proliferation (Compound 51 0.0001 μm + Midostaurin 0.05 μM): −0.05
- Effect size (BIGL, HSA null model), MV4-11 Cell Proliferation (Compound 51 0.0001 μm + Midostaurin 0.1 μM): −0.02
- Effect size (BIGL, HSA null model), MV4-11 Cell Proliferation (Compound 51 0.0001 μm + Midostaurin 0.5 μM): 0.03
- Effect size (BIGL, HSA null model), MV4-11 Cell Proliferation (Compound 51 0.001 μm + Decitabine 0.0015 μM): −0.01
- Effect size (BIGL, HSA null model), MV4-11 Cell Proliferation (Compound 51 0.001 μm + Decitabine 0.035 μM): −0.03
- Effect size (BIGL, HSA null model), MV4-11 Cell Proliferation (Compound 51 0.001 μm + Decitabine 0.15 μM): 0
- Effect size (BIGL, HSA null model), MV4-11 Cell Proliferation (Compound 51 0.001 μm + Decitabine 1.5 μM): −0.05
- Effect size (BIGL, HSA null model), MV4-11 Cell Proliferation (Compound 51 0.001 μm + Decitabine 3 μM): −0.04
- Effect size (BIGL, HSA null model), MV4-11 Cell Proliferation (Compound 51 0.001 μm + Gilteritinib 0.0005 μM): −0.03
- Effect size (BIGL, HSA null model), MV4-11 Cell Proliferation (Compound 51 0.001 μm + Gilteritinib 0.005 μM): −0.01
- Effect size (BIGL, HSA null model), MV4-11 Cell Proliferation (Compound 51 0.001 μm + Gilteritinib 0.01 μM): −0.03
- Effect size (BIGL, HSA null model), MV4-11 Cell Proliferation (Compound 51 0.001 μm + Gilteritinib 0.05 μM): −0.01
- Effect size (BIGL, HSA null model), MV4-11 Cell Proliferation (Compound 51 0.001 μm + Gilteritinib 0.3 μM): −0.01
- Effect size (BIGL, HSA null model), MV4-11 Cell Proliferation (Compound 51 0.001 μm + Gilteritinib 1 μM): −0.01
- Effect size (BIGL, HSA null model), MV4-11 Cell Proliferation (Compound 51 0.001 μm + Midostaurin 0.0012 μM): −0.02
- Effect size (BIGL, HSA null model), MV4-11 Cell Proliferation (Compound 51 0.001 μm + Midostaurin 0.006 μM): −0.01
- Effect size (BIGL, HSA null model), MV4-11 Cell Proliferation (Compound 51 0.001 μm + Midostaurin 0.025 μM): 0.05
- Effect size (BIGL, HSA null model), MV4-11 Cell Proliferation (Compound 51 0.001 μm + Midostaurin 0.05 μM): 0.07
- Effect size (BIGL, HSA null model), MV4-11 Cell Proliferation (Compound 51 0.001 μm + Midostaurin 0.1 μM): −0.03
- Effect size (BIGL, HSA null model), MV4-11 Cell Proliferation (Compound 51 0.001 μm + Midostaurin 0.5 μM): 0.03
- Effect size (BIGL, HSA null model), MV4-11 Cell Proliferation [1]: −0.1
- Synergy/antagonism call (maxR test), MV4-11 Cell Proliferation [1]: **
- Effect size (BIGL, HSA null model), MV4-11 Cell Proliferation [2]: −0.11
- Synergy/antagonism call (maxR test), MV4-11 Cell Proliferation [2]: **
- Effect size (BIGL, HSA null model), MV4-11 Cell Proliferation [3]: −0.23
- Synergy/antagonism call (maxR test), MV4-11 Cell Proliferation [3]: **
- Effect size (BIGL, HSA null model), MV4-11 Cell Proliferation (Compound 51 0.01 μm + Decitabine 1.5 μM): 0.01
- Effect size (BIGL, HSA null model), MV4-11 Cell Proliferation (Compound 51 0.01 μm + Decitabine 3 μM): −0.05
- Effect size (BIGL, HSA null model), MV4-11 Cell Proliferation [4]: −0.36
- Synergy/antagonism call (maxR test), MV4-11 Cell Proliferation [4]: **
- Effect size (BIGL, HSA null model), MV4-11 Cell Proliferation (Compound 51 0.01 μm + Gilteritinib 0.005 μM): −0.02
- Effect size (BIGL, HSA null model), MV4-11 Cell Proliferation (Compound 51 0.01 μm + Gilteritinib 0.01 μM): −0.02
- Effect size (BIGL, HSA null model), MV4-11 Cell Proliferation (Compound 51 0.01 μm + Gilteritinib 0.05 μM): −0.02
- Effect size (BIGL, HSA null model), MV4-11 Cell Proliferation (Compound 51 0.01 μm + Gilteritinib 0.3 μM): −0.02
- Effect size (BIGL, HSA null model), MV4-11 Cell Proliferation (Compound 51 0.01 μm + Gilteritinib 1 μM): −0.02
- Effect size (BIGL, HSA null model), MV4-11 Cell Proliferation (Compound 51 0.01 μm + Midostaurin 0.0012 μM): −0.06
- Effect size (BIGL, HSA null model), MV4-11 Cell Proliferation (Compound 51 0.01 μm + Midostaurin 0.006 μM): −0.13
- Effect size (BIGL, HSA null model), MV4-11 Cell Proliferation (Compound 51 0.01 μm + Midostaurin 0.025 μM): −0.14
- Effect size (BIGL, HSA null model), MV4-11 Cell Proliferation (Compound 51 0.01 μm + Midostaurin 0.05 μM): −0.11
- Effect size (BIGL, HSA null model), MV4-11 Cell Proliferation (Compound 51 0.01 μm + Midostaurin 0.1 μM): −0.04
- Effect size (BIGL, HSA null model), MV4-11 Cell Proliferation (Compound 51 0.01 μm + Midostaurin 0.5 μM): 0.03
- Effect size (BIGL, HSA null model), MV4-11 Cell Proliferation (Compound 51 0.05 μm + Decitabine 0.0015 μM): 0.02
- Effect size (BIGL, HSA null model), MV4-11 Cell Proliferation (Compound 51 0.05 μm + Decitabine 0.035 μM): −0.07
- Effect size (BIGL, HSA null model), MV4-11 Cell Proliferation [5]: −0.23
- Synergy/antagonism call (maxR test), MV4-11 Cell Proliferation [5]: **
- Effect size (BIGL, HSA null model), MV4-11 Cell Proliferation [6]: −0.11
- Synergy/antagonism call (maxR test), MV4-11 Cell Proliferation [6]: **
- Effect size (BIGL, HSA null model), MV4-11 Cell Proliferation (Compound 51 0.05 μm + Decitabine 3 μM): −0.06
- Effect size (BIGL, HSA null model), MV4-11 Cell Proliferation [7]: −0.18
- Synergy/antagonism call (maxR test), MV4-11 Cell Proliferation [7]: **
- Effect size (BIGL, HSA null model), MV4-11 Cell Proliferation (Compound 51 0.05 μm + Gilteritinib 0.005 μM): −0.03
- Effect size (BIGL, HSA null model), MV4-11 Cell Proliferation (Compound 51 0.05 μm + Gilteritinib 0.01 μM): −0.02
- Effect size (BIGL, HSA null model), MV4-11 Cell Proliferation (Compound 51 0.05 μm + Gilteritinib 0.05 μM): −0.02

From patent US20260191835A1, “COMBINATIONS COMPRISING A MENIN-MLL INHIBITOR AND AT LEAST ONE OTHER THERAPEUTIC AGENT” (JANSSEN PHARMACEUTICA NV, priority 2022, published 2026)
